Reference: patent US12195427B2, “MASP-2 inhibitors and methods of use” (priority 2018, dated 2025)

Legend:
Lectin Pathway = Lectin Pathway Activation Assay in Human Serum (mannan-coated ELISA, C3c detection); assay type: biochemical; conditions: 1% human serum
Experimental: Microtiter ELISA plate was coated with mannan from Saccharomyces cerevisiae (Sigma-Aldrich, M7504) for overnight at 4° C. in coating buffer [15 mM Na2CO3, 35 mM NaHCO3].

MASP-2 CCP2-SP = MASP-2 CCP2-SP (Homo sapiens (Human), UniProt O00187); assay: MASP-2 co-crystallization, X-ray crystallography and structure analysis (H-bonds, van der Waals contacts); parameters: van der Waals contact distance, MASP-2 HIS 483 atom CD2 / van der Waals contact distance, MASP-2 HIS 483 atom NE2 / van der Waals contact distance, SER 654 C to compound atom / van der Waals contact distance, SER 654 O to compound atom / van der Waals contact distance, TRP 655 C to compound atom / van der Waals contact distance, MASP-2 GLY 528 atom CA / van der Waals contact distance TRP 655 atom CZ3 / van der Waals contact distance TRP 655 atom N / van der Waals contact distance TRP 655 atom CE3 / van der Waals contact distance GLY 656 atom C / van der Waals contact distance GLY 656 atom CA / van der Waals contact distance GLY 656 atom O / van der Waals contact distance, MASP-2 TYR 607 atom CD1 / van der Waals contact distance, MASP-2 PRO 606 atom O / d(C3,CA1) / d(CA1,N1)2 / d(H4,O1) / d(H4,O2) / d(O1,O2) / d(CA1,O2) / d(CA6,O1) / d(CA6,O2) / d(CA1,C5) / d(O2,H3) / d(N2,C2) / d(CA5,N2) / d(N2,C4) / d(N2,C6) / d(N2,CA3) / d(N2,O3) / d(O4,H2): unit not given beside the values; conditions: for H-bond distance to MASP-2 GLY 656 atom N / H-bond distance to MASP-2 GLY 656 atom O / H-bond distance to MASP-2 SER 654 atom O: Table A1 (H-Bonds); for H-bond distance to MASP-2 GLY 656 atom N: GLY 656 N; for H-bond distance to MASP-2 GLY 656 atom O: GLY 656 O; for H-bond distance to MASP-2 SER 654 atom O: SER 654 O; for van der Waals contact distance, MASP-2 TYR 607 atom CD1: Table A2-4; for van der Waals contact distance, MASP-2 amino acid atom to compound atom: ARG 630; for van der Waals contact distance TRP 655 atom CE3: MASP-2 TRP 655 CE3, compound atom in line below; for van der Waals contact distance TRP 655 atom CZ3: MASP-2 TRP 655 CZ3; for Ligand-pharmacophore element distance, pharmacophore element C2 / Ligand-pharmacophore element distance, pharmacophore element C3 / Ligand-pharmacophore element distance, pharmacophore element C4 / Ligand-pharmacophore element distance, pharmacophore element C5 / Ligand-pharmacophore element distance, pharmacophore element C6 / Ligand-pharmacophore element distance, pharmacophore element C7 / Ligand-pharmacophore element distance, pharmacophore element CA1 / Ligand-pharmacophore element distance, pharmacophore element CA2 / Ligand-pharmacophore element distance, pharmacophore element CA3 / Ligand-pharmacophore element distance, pharmacophore element CA4 / Ligand-pharmacophore element distance, pharmacophore element CA5 / Ligand-pharmacophore element distance, pharmacophore element CA6: Table A4-1; for d(N2,CA2) / d(O2,H3) / d(O2,N2): Table A5-2 pharmacophore distance, S3/S4 region; for a(O1, O2, H3) / a(O1, O2, N2) / a(O2, N2, CA2): Table A6-2 pharmacophore angle; for Pharmacophore torsion angle a(O1, O2, N2, CA2): Table A7-2;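 on Ligand-pharmacophore element distance, pharmacophore element C2: distance from averaged pharmacophore element to bound ligand; missing value means element absent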;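 on Ligand-pharmacophore element distance, pharmacophore element C3: distance from averaged pharmacophore element to bound ligand; missing value means element absent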;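 on Ligand-pharmacophore element distance, pharmacophore element C4: distance from averaged pharmacophore element to bound ligand; missing value means element absent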;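 on Ligand-pharmacophore element distance, pharmacophore element C5: distance from averaged pharmacophore element to bound ligand; missing value means element absent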
In short: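 Human MASP-2 CCP2-SP (± 6His) expressed in E. coli and crystallized; crystals soaked in crystallization solution containing inhibitor, cryoprotected with 20% glycerol or frozen directly. Synchrotron data at 1.0 wavelength; molecular replacement from 1Q3X, partial refinement; one ligand pose analyzed; LigPlot+ contacts may include H-bonds.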

[1] = Table A5-1 pharmacophore: distance between elements, S2/S1 region
[2] = Table A7-1, between pharmacophore elements of the bound compound
[3] = between pharmacophore elements of the bound compound

Sequence of MASP-2 CCP2-SP (O00187 445-686): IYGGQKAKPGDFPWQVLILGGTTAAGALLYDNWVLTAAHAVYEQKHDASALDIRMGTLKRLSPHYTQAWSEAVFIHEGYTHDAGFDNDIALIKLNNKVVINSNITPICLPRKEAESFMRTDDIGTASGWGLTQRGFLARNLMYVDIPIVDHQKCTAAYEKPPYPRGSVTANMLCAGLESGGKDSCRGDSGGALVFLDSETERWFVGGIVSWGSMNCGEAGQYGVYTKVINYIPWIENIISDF
Sequence of MASP-2 CCP2-SP (O00187 364-432 partner): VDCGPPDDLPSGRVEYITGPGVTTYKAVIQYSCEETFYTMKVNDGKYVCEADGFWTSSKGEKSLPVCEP

C[C@H](NC(=O)[C@H]1C[C@H](Cc2ccccc2)CN1)C(=O)NCc1cnc2[nH]cc(Cl)c2c1 [compound 1334, (2R,4S)-4-Benzyl-N—((S)-1-(((3-chloro-1H-pyrrolo[2,3-b]pyridin-5-yl)methyl)amino)-1-oxopropan-2-yl)pyrrolidine-2-carboxamide]
IC50 (Lectin Pathway): 0.05 to 0.5 µM
H-bond distance to MASP-2 GLY 656 atom N (MASP-2 CCP2-SP): 3.16
H-bond distance to MASP-2 GLY 656 atom O (MASP-2 CCP2-SP): 2.83
H-bond distance to MASP-2 SER 654 atom O (MASP-2 CCP2-SP): 2.81
van der Waals contact distance, MASP-2 HIS 483 atom CD2 (MASP-2 CCP2-SP; Table A2-1): 3.66
van der Waals contact distance, MASP-2 HIS 483 atom CE1 (MASP-2 CCP2-SP; Table A2-1): 3.84
van der Waals contact distance, MASP-2 PHE 529 atom CD2 (MASP-2 CCP2-SP; Table A2-3): 3.73
van der Waals contact distance, MASP-2 TYR 607 atom CD1 (MASP-2 CCP2-SP): 3.81
van der Waals contact distance, MASP-2 amino acid atom to compound atom (MASP-2 CCP2-SP; Table A2-9, AA atoms CG, CZ): 3.89
van der Waals contact distance, MASP-2 amino acid atom to compound atom (MASP-2 CCP2-SP; Table A2-9 second part, AA atoms N, NE, NH1): 3.59
van der Waals contact distance TRP 655 atom CE3 (MASP-2 CCP2-SP; Table A2-13): 3.66
van der Waals contact distance TRP 655 atom CZ3 (MASP-2 CCP2-SP; Table A2-13): 3.67
van der Waals contact distance TRP 655 atom N (MASP-2 CCP2-SP; Table A2-13, MASP-2 TRP 655 N): 3.68
Ligand-pharmacophore element distance, pharmacophore element C2 (MASP-2 CCP2-SP): 0
Ligand-pharmacophore element distance, pharmacophore element C3 (MASP-2 CCP2-SP): 0
Ligand-pharmacophore element distance, pharmacophore element C4 (MASP-2 CCP2-SP): 0
Ligand-pharmacophore element distance, pharmacophore element C5 (MASP-2 CCP2-SP): 0.34
Ligand-pharmacophore element distance, pharmacophore element C6 (MASP-2 CCP2-SP): 0
Ligand-pharmacophore element distance, pharmacophore element C7 (MASP-2 CCP2-SP): 0
Ligand-pharmacophore element distance, pharmacophore element CA1 (MASP-2 CCP2-SP): 1.04
Ligand-pharmacophore element distance, pharmacophore element CA2 (MASP-2 CCP2-SP): 0.7
Ligand-pharmacophore element distance, pharmacophore element CA3 (MASP-2 CCP2-SP): 0
Ligand-pharmacophore element distance, pharmacophore element CA4 (MASP-2 CCP2-SP): 0
Ligand-pharmacophore element distance, pharmacophore element CA5 (MASP-2 CCP2-SP): 0
Ligand-pharmacophore element distance, pharmacophore element CA6 (MASP-2 CCP2-SP): 0
d(CA1,C5) (MASP-2 CCP2-SP; [1]): 3.47
d(CA1,O1) (MASP-2 CCP2-SP; [1]): 5.33
d(CA1,O2) (MASP-2 CCP2-SP; [1]): 4.84
d(CA1,O4) (MASP-2 CCP2-SP; [1]): 1.75
d(H4,O1) (MASP-2 CCP2-SP; [1]): 3.14
d(H4,O2) (MASP-2 CCP2-SP; [1]): 3.74
d(O1,O2) (MASP-2 CCP2-SP; [1]): 3.24
d(N2,CA2) (MASP-2 CCP2-SP): 6.09
d(O2,H3) (MASP-2 CCP2-SP): 2.99
d(O2,N2) (MASP-2 CCP2-SP): 2.77
a(C5, CA1, O1) (MASP-2 CCP2-SP; Table A6-1 pharmacophore angle): 150.49
a(CA1, O1, O2) (MASP-2 CCP2-SP; Table A6-1 pharmacophore angle): 100.10
a(O1, CA1, O4) (MASP-2 CCP2-SP; Table A6-1 pharmacophore angle): 68.25
a(O1, O2, H4) (MASP-2 CCP2-SP; Table A6-1 pharmacophore angle): 124.74
a(O1, O2, H3) (MASP-2 CCP2-SP): 136.63
a(O1, O2, N2) (MASP-2 CCP2-SP): 143.82
a(O2, N2, CA2) (MASP-2 CCP2-SP): 155.99
Pharmacophore torsion angle a(C5, CA1, O1, H4) (MASP-2 CCP2-SP; [2]): 2.51
Pharmacophore torsion angle a(H4, O1, O2, H3) (MASP-2 CCP2-SP; [2]): 110.57
Pharmacophore torsion angle a(H4, O1, O2, N2) (MASP-2 CCP2-SP; [2]): −172.73
Pharmacophore torsion angle a(O1, H4, O2, CA1) (MASP-2 CCP2-SP; [2]): −93.67
Pharmacophore torsion angle a(O1, O2, N2, CA2) (MASP-2 CCP2-SP; [3]): 133.84

Cc1cc(Cl)cc(CNC(=O)[C@H](C)NC(=O)[C@H]2C[C@H](Cc3ccccc3)CN2)c1O [compound 1307, (2R,4S)-4-Benzyl-N—((S)-1-((5-chloro-2-hydroxy-3-methylbenzyl)amino)-1-oxopropan-2-yl)pyrrolidine-2-carboxamide]
IC50 (Lectin Pathway): 0.05 to 0.5 µM
H-bond distance to MASP-2 GLY 656 atom N (MASP-2 CCP2-SP): 2.95
H-bond distance to MASP-2 GLY 656 atom O (MASP-2 CCP2-SP): 2.86
H-bond distance to MASP-2 SER 654 atom O (MASP-2 CCP2-SP): 2.91
van der Waals contact distance, MASP-2 HIS 483 atom NE2 (MASP-2 CCP2-SP; Table A2-1): 3.5
van der Waals contact distance, MASP-2 GLY 528 atom CA (MASP-2 CCP2-SP; Table A2-2): 3.75
van der Waals contact distance, MASP-2 PHE 529 atom CD2 (MASP-2 CCP2-SP; Table A2-3): 3.69
van der Waals contact distance, MASP-2 PHE 529 atom CZ (MASP-2 CCP2-SP; Table A2-3): 3.86
van der Waals contact distance, MASP-2 TYR 607 atom CD1 (MASP-2 CCP2-SP): 3.83
van der Waals contact distance, SER 654 C to compound atom (MASP-2 CCP2-SP; Table A2-11): 3.79
van der Waals contact distance, VAL 653 CG1 to compound atom (MASP-2 CCP2-SP; Table A2-11): 3.47
van der Waals contact distance TRP 655 atom CE3 (MASP-2 CCP2-SP; Table A2-13): 3.75
van der Waals contact distance TRP 655 atom CZ3 (MASP-2 CCP2-SP; Table A2-13): 3.76
Ligand-pharmacophore element distance, pharmacophore element C2 (MASP-2 CCP2-SP): 0
Ligand-pharmacophore element distance, pharmacophore element C3 (MASP-2 CCP2-SP): 0
Ligand-pharmacophore element distance, pharmacophore element C4 (MASP-2 CCP2-SP): 0
Ligand-pharmacophore element distance, pharmacophore element C5 (MASP-2 CCP2-SP): 0.37
Ligand-pharmacophore element distance, pharmacophore element C6 (MASP-2 CCP2-SP): 0
Ligand-pharmacophore element distance, pharmacophore element C7 (MASP-2 CCP2-SP): 0.76
Ligand-pharmacophore element distance, pharmacophore element CA1 (MASP-2 CCP2-SP): 1.55
Ligand-pharmacophore element distance, pharmacophore element CA2 (MASP-2 CCP2-SP): 0.17
Ligand-pharmacophore element distance, pharmacophore element CA3 (MASP-2 CCP2-SP): 0
Ligand-pharmacophore element distance, pharmacophore element CA4 (MASP-2 CCP2-SP): 0
Ligand-pharmacophore element distance, pharmacophore element CA5 (MASP-2 CCP2-SP): 0
Ligand-pharmacophore element distance, pharmacophore element CA6 (MASP-2 CCP2-SP): 0
d(CA1,C5) (MASP-2 CCP2-SP; [1]): 3.13
d(CA1,O1) (MASP-2 CCP2-SP; [1]): 4.60
d(CA1,O2) (MASP-2 CCP2-SP; [1]): 4.57
d(CA1,O4) (MASP-2 CCP2-SP; [1]): 2.74
d(H4,O1) (MASP-2 CCP2-SP; [1]): 3.15
d(H4,O2) (MASP-2 CCP2-SP; [1]): 3.80
d(O1,O2) (MASP-2 CCP2-SP; [1]): 3.17
d(O4,H2) (MASP-2 CCP2-SP; [1]): 0.98
d(N2,CA2) (MASP-2 CCP2-SP): 6.14
d(O2,H3) (MASP-2 CCP2-SP): 2.09
d(O2,N2) (MASP-2 CCP2-SP): 2.81
a(C5, CA1, O1) (MASP-2 CCP2-SP; Table A6-1 pharmacophore angle): 161.35
a(CA1, O1, O2) (MASP-2 CCP2-SP; Table A6-1 pharmacophore angle): 109.57
a(CA1, O4, H2) (MASP-2 CCP2-SP; Table A6-1 pharmacophore angle): 127.11
a(O1, CA1, C7) (MASP-2 CCP2-SP; Table A6-1 pharmacophore angle): 121.00
a(O1, CA1, O4) (MASP-2 CCP2-SP; Table A6-1 pharmacophore angle): 66.49
a(O1, O2, H4) (MASP-2 CCP2-SP; Table A6-1 pharmacophore angle): 126.83
a(O1, O2, H3) (MASP-2 CCP2-SP): 129.22
a(O1, O2, N2) (MASP-2 CCP2-SP): 142.81
a(O2, N2, CA2) (MASP-2 CCP2-SP): 155.37
Pharmacophore torsion angle a(C5, CA1, O1, H4) (MASP-2 CCP2-SP; [2]): −6.78
Pharmacophore torsion angle a(C7, CA1, O1, H4) (MASP-2 CCP2-SP; [2]): −161.01
Pharmacophore torsion angle a(H4, O1, O2, H3) (MASP-2 CCP2-SP; [2]): −163.22
Pharmacophore torsion angle a(H4, O1, O2, N2) (MASP-2 CCP2-SP; [2]): −170.13
Pharmacophore torsion angle a(O1, H4, O2, CA1) (MASP-2 CCP2-SP; [2]): −88.47
Pharmacophore torsion angle a(O1, O2, N2, CA2) (MASP-2 CCP2-SP; [3]): 138.35
